This note sets out measurements from patent publication US12398154B2, “Azaquinazoline pan-KRas inhibitors” (Mirati Therapeutics, Inc., priority 2020, dated 2025).

Each structure is given as a SMILES string.

Broadly, the IC50 is the concentration needed to halve the response being measured.

The test system of assay [1] is pERK in PSN1 cells. The assay is described as follows: Inhibition of KRas phosphorylation of ERK (Cisbio HTRF pERK assay). The following applies: Homo sapiens, PSN1, 3 h, read-out: Inhibition (HTRF IC50) of KRas-mediated Phosphorylation of ERK, PSN1. In general terms: In TR-FRET formats the signal depends on donor and acceptor labels being close together.
Description: To harvest cells from flask using 0.05% Trypsin/EDTA solution. Add 10 mL of media to stop trypsinizing. Pipette the cells into a conical bottom 50 mL centrifuge tube and centrifuge 5 min×1000 rpm. • 2. Re-suspend the cell pellet in media, take a cell count, and then adjust the cell density using fresh media. • 3. Seed 6,000 cells into cell culture plate with 50 μL media. […] Incubate cell plate overnight in a 37° C., 5% CO2 incubator. • Compound titrations • 1. Use Tecan to complete the compound addition. Compounds start from 10 uM top, 3-fold dilution, and 10 doses. The final DMSO concentration is 0.8%. Dispensed 0.2 uM Trametinib as Min control. • 2. Incubate cell plate for 3 hrs in the incubator. • Detection with cisbio pERK HTRF kit • 1. […] At the end of the compound treatment, flick-off the media. • 3. Add 35 μL of lysis buffer per well using a Multidrop Combi. Then place on a plate agitator shaking at 300 rpm at 4° C. for 40 mins. • 4. Make up the HTRF antibody buffer. For each assay plate, mix 50 μL of d2-conjugate antibody with 950 μL of detection buffer. Similarly, mix 50 μL of Cryptate antibody with 950 μL of detection buffer. Then mix the two diluted antibodies together. • 5. Dispense 3.4 μL the antibody buffer to wells of an empty assay plate. Seal the plate and centrifuge plate 30 sec×1000 rpm. • 6. At the end of the 4° C. lysis, centrifuge the lysate plates 3 mins×1500 rpm. • 7. Use the Bravo to transfer 13.6 μL of lysate from cell culture plate to assay plate.
Then incubate assay plate for 2 hrs at room temperature. […] At the end of incubation, read plate on the Envision after centrifuging plate 30 sec× • 1000 rpm.
Assay [2] deals with KRas G12R (Homo sapiens, UniProt P01116, G12R). As to the kind of experiment: biochemical.
Description: (§5) The ability of a compound to bind to KRas was measured using a TR-FRET displacement assay. […] After a 60-minute incubation at room temperature, the reaction was measured using a BMG LABTECH CLARIO star Plus via TR-FRET. […] The POC values were fit to a 4-parameter IC50 equation and the IC50 value reported.
Assay [3] has as its system phospho-ERK in NCI-H460 (Q61H) cells. The assay is described as follows: Inhibition of KRas-mediated phosphorylation of ERK (in-cell western). It is filed as cell-based. The following applies: Homo sapiens, NCI-H460, 3 h, 3 hours compound, phospho-ERK normalized to GAPDH. As for the experimental part:
(§1) Diluted compounds were then added in a final concentration of 0.5% DMSO. After 3 hours, 50 μL of 4.0% formaldehyde was added and the plates incubated at room temperature for 20 minutes. The plates were then dumped and permeabilized with 150 μL of ice cold 100% methanol for 10 minutes.
(§2) The amount of phospho-ERK was determined using an antibody specific for the phosphorylated form of ERK and compared to the amount of GAPDH. […] The plates were incubated overnight at 4° C. The plates were washed 3× with 150 uL PBS+0.1% Tween 20.
(§3) The plates were washed 3× with 150 uL PBS+0.1% Tween 20. Plates were imaged dry on a Li-COR Odyssey CLX plate reader.
(§4) The phospho-ERK (Thr202/Tyr204) signal was normalized to the GAPDH signal for each well and percent of DMSO control values were calculated. IC50 values were generated using a 4-parameter fit of the dose response curve.

In assay [4] the test system is phospho-ERK in NCI-H727 (G12V) cells. The description is as above. It is filed as cell-based. The following applies: Homo sapiens, NCI-H727, 3 h, 3 hours compound, phospho-ERK normalized to GAPDH. How it is done:
as §1, §2, §3, §4

For assay [5], the system named is phospho-ERK in AsPC-1 (G12D) cells. Described as above. Particulars: Homo sapiens, ASPC1, 3 h, 3 hours compound, phospho-ERK normalized to GAPDH. Format: cell-based. How it is done: as §1, §2, §3, §4
The test system of assay [6] is pERK in MKN1 cells. As to the kind of experiment: Inhibition of KRas phosphorylation of ERK (Cisbio HTRF pERK assay). Particulars: Homo sapiens, MKN-1, 3 h, read-out: Inhibition (HTRF IC50) of KRas-mediated Phosphorylation of ERK, MKN1.
Assay [7] addresses KRas G12V (Homo sapiens, UniProt P01116, G12V). The assay is described as follows: biochemical.
Description: as §5
Assay [8] deals with KRas G12D (Homo sapiens, UniProt P01116, G12D). The assay is described as follows: biochemical.
Sequence of KRas G12D (P01116 1-169 isoform P01116-2 G12D): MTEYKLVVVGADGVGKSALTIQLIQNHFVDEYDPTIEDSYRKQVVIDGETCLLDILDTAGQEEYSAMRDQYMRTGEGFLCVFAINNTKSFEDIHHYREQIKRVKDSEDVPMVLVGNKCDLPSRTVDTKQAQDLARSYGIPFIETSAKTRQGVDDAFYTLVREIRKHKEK
Description: as §5

Sequence of KRas G12R (P01116 1-169 isoform P01116-2 G12R): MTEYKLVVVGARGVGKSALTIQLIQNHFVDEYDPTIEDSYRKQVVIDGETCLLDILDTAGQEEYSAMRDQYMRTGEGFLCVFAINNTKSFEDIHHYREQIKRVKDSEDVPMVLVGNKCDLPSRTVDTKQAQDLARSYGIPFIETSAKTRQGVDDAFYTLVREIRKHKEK
Sequence of KRas G12V (P01116 1-169 isoform P01116-2 G12V): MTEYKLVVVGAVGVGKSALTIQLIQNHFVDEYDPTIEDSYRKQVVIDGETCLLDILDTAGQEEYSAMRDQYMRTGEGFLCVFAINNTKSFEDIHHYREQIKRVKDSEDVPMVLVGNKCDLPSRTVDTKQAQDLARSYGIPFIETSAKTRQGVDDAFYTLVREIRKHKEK

In the case of `C#Cc1c(F)ccc2cc(O)cc(-c3ncc4c(N5CCOC[C@](C)(O)C5)nc(OC[C@@]56CCCN5C[C@H](F)C6)nc4c3F)c12` (single isomer, unassigned) [Example 386], the IC50 in assay [1] was 2880 nM; in assay [2], 6 nM; in assay [3] it was 299 nM; in assay [4], 1020 nM; in assay [5], 1180 nM; in assay [6] it was 44 nM. In addition, the IC50 in assay [7] was 5 nM; in assay [8], 7 nM.

Take `Oc1cc(-c2ncc3c(N4CCC[C@]5(C4)C[C@H](O)C5)nc(OC[C@@]45CCCN4C[C@H](F)C5)nc3c2F)c2c(F)c(F)ccc2c1` (single isomer, unassigned) [Example 441]: the IC50 in assay [1] was 2880 nM; in assay [2], no more than 2 nM; in assay [3], 70 nM; in assay [4] it was 139 nM; in assay [5] it was 119 nM; in assay [6], 6 nM. The IC50 in assay [7] is no more than 2 nM; in assay [8], 3 nM.

In the case of `Oc1cc(-c2ncc3c(N4CCC[C@]5(C4)C[C@@H](O)C5)nc(OC[C@@]45CCCN4C[C@H](F)C5)nc3c2F)c2c(F)c(F)ccc2c1` (single isomer, unassigned) [Example 442], the 50% inhibitory concentration (IC50) in assay [1] was 2850 nM; in assay [2], no more than 2 nM; in assay [3] it was 124 nM; in assay [4] it was 234 nM; in assay [5] it was 134 nM; in assay [6], 9 nM. The IC50 in assay [7] and in assay [8] was no more than 2 nM in each case.

For the compound `CCc1c(F)ccc2cc(O)cc(-c3ncc4c(NCc5n[nH]cc5C(N)=O)nc(OC[C@@]56CCCN5C[C@H](F)C6)nc4c3F)c12` [Example 162], the IC50 in assay [1] is no less than 10000 nM; in assay [2], 3 nM; in assay [3], 6770 nM; in assay [4] it was 4170 nM; in assay [5], 4530 nM; in assay [6] it was 187 nM. Besides, the IC50 in assay [7] is no more than 2 nM; in assay [8] it was 31 nM.

For `CCc1c(F)ccc2cc(O)cc(-c3ncc4c(NC56CC(CO)(C5)C6)nc(OC[C@@]56CCCN5C[C@H](F)C6)nc4c3F)c12` [Example 167, 5-ethyl-6-fluoro-4-(8-fluoro-2-(((2R,7aS)-2-fluorohexahydro-1H-pyrrolizin-7a-yl)methoxy)-4-((3-(hydroxymethyl)bicyclo[1.1.1]pentan-1-yl)amino)pyrido[4,3-d]pyrimidin-7-yl) naphthalen-2-ol], the 50% inhibitory concentration (IC50) in assay [1] is no less than 10000 nM; in assay [2], no more than 2 nM; in assay [3], 623 nM; in assay [4], 1250 nM; in assay [5], 6760 nM; in assay [6] it was 3 nM. Further, the figures for the IC50 in assay [7] and in assay [8] were no more than 2 nM and 16 nM, respectively.

With `CCc1c(F)ccc2cc(O)cc(-c3ncc4c(NCCc5c[nH]nn5)nc(OC[C@@]56CCCN5C[C@H](F)C6)nc4c3F)c12` [Example 169, 4-(4-((2-(1H-1,2,3-triazol-4-yl)ethyl)amino)-8-fluoro-2-(((2R,7aS)-2-fluorohexahydro-1H-pyrrolizin-7a-yl)methoxy)pyrido[4,3-d]pyrimidin-7-yl)-5-ethyl-6-fluoronaphthalen-2-ol], the IC50 in assay [1] was no less than 10000 nM; in assay [2], no more than 2 nM; in assay [3], 931 nM; in assay [4] it was 1810 nM; in assay [5], 2890 nM; in assay [6], 100 nM. The half-inhibitory concentration (IC50) in assay [7] was no more than 2 nM; in assay [8], 4 nM.

For `CCc1c(F)ccc2cc(O)cc(-c3ncc4c(NCc5ccc6nonc6c5)nc(OC[C@@]56CCCN5C[C@H](F)C6)nc4c3F)c12` [Example 175, 4-(4-((benzo[c][1,2,5]oxadiazol-5-ylmethyl)amino)-8-fluoro-2-(((2R,7aS)-2-fluorohexahydro-1H-pyrrolizin-7a-yl)methoxy)pyrido[4,3-d]pyrimidin-7-yl)-5-ethyl-6-fluoronaphthalen-2-ol], the half-maximal inhibitory concentration (IC50) in assay [1] is no less than 10000 nM; in assay [2], no more than 2 nM; in assay [3] it was 675 nM; in assay [4], 756 nM; in assay [5], 1720 nM; in assay [6], 39 nM. The values for the half-maximal inhibitory concentration (IC50) in assay [7] and in assay [8] were no more than 2 nM and 38 nM, respectively.

For `CCc1c(F)ccc2cc(O)cc(-c3ncc4c(N5C[C@H](O)C[C@@H](F)C5)nc(OC[C@@]56CCCN5C[C@H](F)C6)nc4c3F)c12` [Example 178], the IC50 in assay [1] is no less than 10000 nM; in assay [2] it was 14 nM; in assay [3], 728 nM; in assay [4] it was 2110 nM; in assay [5] it was 606 nM; in assay [6], 49 nM. For the same compound, the half-inhibitory concentration (IC50) worked out at 7 nM in assay [7] and 18 nM in assay [8].

`CCc1c(F)ccc2cc(O)cc(-c3ncc4c(N5CC[C@H](F)[C@@H](O)C5)nc(OC[C@@]56CCCN5C[C@H](F)C6)nc4c3F)c12` [Example 179]: the IC50 in assay [1] amounted to 6960 nM; in assay [3], 274 nM; in assay [4], 675 nM; in assay [5] it was 785 nM; in assay [6], 10 nM.

On to `CCc1c(F)ccc2cc(O)cc(-c3ncc4c(N5C[C@@H](C)C[C@@H](O)C5)nc(OC[C@@]56CCCN5C[C@H](F)C6)nc4c3F)c12` [Example 180], for which the IC50 was 6900 nM in assay [1]; 4 nM in assay [2]; 113 nM in assay [3]; 623 nM in assay [4]; 205 nM in assay [5]; 10 nM in assay [6]. The IC50 in assay [7] is no more than 2 nM; in assay [8] it was 4 nM.

Turning to `CCc1c(F)ccc2cc(O)cc(-c3ncc4c(N5C[C@H](O)CC[C@H]5C)nc(OC[C@@]56CCCN5C[C@H](F)C6)nc4c3F)c12` [Example 182], the IC50 was determined as 6900 nM in assay [1]; 157 nM in assay [3]; 355 nM in assay [4]; 547 nM in assay [5]; 5 nM in assay [6].

With `CCc1c(F)ccc2cc(O)cc(-c3ncc4c(N5CCCC(O)(C(F)(F)F)C5)nc(OC[C@@]56CCCN5C[C@H](F)C6)nc4c3F)c12` (some centres unmarked) [Example 183], the IC50 in assay [1] was found to be 4230 nM; in assay [3] it was 137 nM; in assay [4] it was 720 nM; in assay [5] it was 399 nM; in assay [6], 2 nM.

In the case of `CCc1c(F)ccc2cc(O)cc(-c3ncc4c(N5C[C@H](O)CC[C@@H]5C)nc(OC[C@@]56CCCN5C[C@H](F)C6)nc4c3F)c12` [Example 186], the concentration for half-maximal inhibition (IC50) in assay [1] is no less than 10000 nM; in assay [3], 592 nM; in assay [4], 1060 nM; in assay [5], 1590 nM; in assay [6], 108 nM.

As for `CCc1c(F)ccc2cc(O)cc(-c3ncc4c(N5CC(O)CC(F)(F)C5)nc(OC[C@@]56CCCN5C[C@H](F)C6)nc4c3F)c12` (some centres unmarked) [Example 190], the IC50 in assay [1] is 4990 nM; in assay [2], no more than 2 nM; in assay [3], 62 nM; in assay [4] it was 272 nM; in assay [5], 189 nM; in assay [6], 11 nM. Further, in assay [7], the IC50 is no more than 2 nM.

For the compound `CCc1c(F)ccc2cc(O)cc(-c3ncc4c(N5CCCC(CO)C5)nc(OC[C@@]56CCCN5C[C@H](F)C6)nc4c3F)c12` (stereo partly drawn) [Example 306, 5-ethyl-6-fluoro-4-(8-fluoro-2-(((2R,7aS)-2-fluorohexahydro-1H-pyrrolizin-7a-yl)methoxy)-4-(3-(hydroxymethyl)piperidin-1-yl)pyrido[4,3-d]pyrimidin-7-yl)naphthalen-2-ol], the 50% inhibitory concentration (IC50) in assay [1] came out at 6800 nM; in assay [3] it was 306 nM; in assay [4], 461 nM; in assay [5], 405 nM; in assay [6], 57 nM.

For `CCc1c(F)ccc2cc(O)cc(-c3ncc4c(NC5CN(C(N)=O)C5)nc(OC[C@@]56CCCN5C[C@H](F)C6)nc4c3F)c12` [Example 310, 3-((7-(8-ethyl-7-fluoro-3-hydroxynaphthalen-1-yl)-8-fluoro-2-(((2R,7aS)-2-fluorohexahydro-1H-pyrrolizin-7a-yl)methoxy)pyrido[4,3-d]pyrimidin-4-yl)amino)azetidine-1-carboxamide], the half-inhibitory concentration (IC50) in assay [2] was no more than 2 nM; in assay [3] it was 3790 nM; in assay [4], 3370 nM; in assay [5] it was no less than 10000 nM; in assay [7] it was no more than 2 nM; in assay [8], 8 nM.
